Literature values in article PMC11823679, “Protamine protects against vancomycin-induced kidney injury” (Antimicrobial Agents and Chemotherapy, 2025).

System: megalin
Design: method as in Hori et al. ([18])
Conditions: quartz crystal microbalance analysis, ref Hori et al. ([18]), cited from earlier work
Text: Hori et al. ([18]) performed a study to evaluate the binding of megalin to vancomycin and cisplatin, as well as aminoglycosides and colistin. They utilized quartz crystal microbalance analysis to assess the dir ...

In the case of `CC1(C)C[C@@H]1C(=O)N/C(=C\CCCCSC[C@H](N)C(=O)O)C(=O)O` [cilastatin], the “Competition of drug binding to megalin (in words)” value (binding of gentamicin, colistin, vancomycin and cisplatin) is given as “the binding of all the drugs listed above is competed by cilastatin”.

In the case of `N.N.[Cl][Pt][Cl]` [cisplatin], the “Direct binding to megalin (in words)” value is given as “megalin is bound specifically”.

In the case of `CNC(C)C1CCC(N)C(OC2C(N)CC(N)C(OC3OCC(C)(O)C(NC)C3O)C2O)O1` (stereo not shown) [gentamicin], the “Direct binding to megalin (in words)” value is listed as “megalin is bound specifically”.

In the case of colistin, the “Direct binding to megalin (in words)” value is listed as “megalin is bound specifically”.
